Each block holds one molecule with its values, some of them ahead of it.
Experiments:
Format in all cases: in vivo
[1] = test system: Balb/c mice; assay: open-field test, Balb/c mice (passive type of emotional-stress reaction); parameters: key to Total activity: sum of all locomotor activity counts (crossings + rearings) in 3 min; conditions: for Number of defecations / Peripheral activity (crossings) / Total activity / Central activity (crossings) / Vertical activity (rearings): M ± mx; for effect on the behavior (locomotor activity) of Balb/c mice in open-field test, in words: i.p., screening
Text: (§1) The main point of this approach consists in comparative analysis of the behavioural effects of tested compounds in two inbred strains of mice Balb/c and C57B1/6 with different hereditary types of emotional-stress reactions (ESR). The anxiolytic effect was estimated as the activation of the locomotor activity of animals with “passive” type of ESR (Balb/c mice). The main index describing the sedative properties of tested drugs was the inhibition of the locomotor activity of mice with “active” type of ESR (C57B1/6 strain). The anxioselectivity was evaluated according to coincidence of doses range which activated or inhibited the behavior of mice of different strains. Earlier this approach has been successfully used for estimation of anxioselective activity of such known drugs as phenazepam [Seredenin S. B. et al., Bull.Exp.Biol.Med., 1979, v.88, N7, p.38; Seredenin S. B. et al., Ann.Inst.Super.Sanita, 1990, v.26, N1, p.81-88], mexidol [Seredenin S. B. et al., Khimiko-Farmatsevt.Zhurnal, 1987, N2, p.134; Vironina T. A., Seredenin S. B., Ann.Inst.Super.Sanita, 1988, v.24, N3, p.461-466] and gidazepam [Seredenin S. B. et al., in: “Gidazepam” Kiev, Naukova Dumka, 1992, p.92; Seredenin S. B., Blednov Yu. A., Phys.Chem.Biol.Med., 1993, v.1, N1, p.53-60].
(§2) Male C57B1/6 and Balb/c mice (“Stolbovaya” animal farm), weighing 20-22 g were used. The animals were housed in a separate animal room in groups of ten and maintained on 12 h light-dark cycle (light from 8.00 till 20.00) with free access to standard food and water during two weeks before experiment. Testing was performed between 9.00 and 13.00. Every used compound was administered intraperitoneally in water solutions 30 min before testing (0,1 ml solution per 10 g of weight). The “open-field” apparatus consisted of cylinder closed from one end, illuminated by four 75 W lamps fixed to the walls 100 cm above the floor. The “open-field” apparatus was 100 cm in diameter and white-painted; the floor was marked with 3 black circles and some radial lines divided the floor into 16 peripheral and 8 central segments. 30 min after injection each animal was placed in the same peripheral square on the floor for 3 min of testing after 1 min exposure in the dark chamber. The following behavior variables were recorded: 1) the number of crossings in the peripheral area (peripheral activity); 2) the number of crossings in the central segments (central activity); 3) the number of rearings (vertical activity); 4) the emotionality was measured as the number of defecations during the test. The sum of all types of locomotor activity was marked as total activity. The t-Student test was used for statistical analysis.

[2] = test system: C57B1/6 mice; assay: open-field test, C57B1/6 mice (active type of emotional-stress reaction); conditions: i.p., doses that activate Balb/c mice
Text: as §1, §2

[3] = test system: outbred male rats; assay: conflict Vogel test (punished licking of water); conditions: M ± mx
Experimental: The study of anxiolytic activity of chosen compounds was carried out in the experiments with outbred male rats weighing 180-200 g in standard conflict Vogel' procedure [Voronina T. A. et al., in: “Phenazepam”, Naukova Dumka, Kiev, 1982, p.89, 93, 146]. The main aim of the initial step of experiments was the training of rats to develop the feeling of thirst with following experience of water licking from bottle in the experimental chamber. The animals were deprived of water for 24 hours and were placed in the test chamber for 5-min adaptation period during which they had free access to the drinking bottle. After another 24 h deprivation period the rats were placed again in the test chamber and were allowed to drink water for 5 sec. Immediately afterwards drinking attempts were punished by electric shock (0,5 mA). Under this collision of drinking and protective reflexes the extremal situation was developed. In this situation the anxiety of punishment prevented the licking process. The number of shocks received throughout a 5-min experimental session was recorded.

[4] = test system: outbred male mice; assay: rotarod test (myorelaxant activity); conditions: cut-off 120 sec
Experimental: The myorelaxant activity of choosen compounds were studied in the outbred male mice weighing 22-25 g in rotarod test [Voronina T. A. et al., in: “Phenazepam”, Naukova Dumka, Kiev, 1982, p.145]. The animals were placed on the horizontal rotarod (D=2 cm) calibrated for a fixed speed of 4 rpm. According to the rotarod experimental protocol, normal motor coordination was defined by the ability of the animals to remain on the rotarod for an arbitrarily selected time of 120 sec.

[5] = test system: male outbred mice; assay: potentiation of sleep induced by sodium thiopental
Experimental: The possible hypnotic effects of choosen drugs was estimated according to method of potentiation of sleep induced by sodium thiopental. The male outbred mice weighing 20-25 g were injected i.p. with sodium thiopental at dose of 70 mg/kg. Two parameters were estimated: latent time of sleeping and duration of sleep. The used compounds were administered i.p. 30 min prior injection of sodium thiopental.

[6] = 0.5 mg/kg i.p. 30 min before thiopental 70 mg/kg i.p.
[7] = 1.0 mg/kg i.p. 30 min before thiopental 70 mg/kg i.p.
[8] = 5.0 mg/kg i.p. 30 min before thiopental 70 mg/kg i.p.
[9] = 10.0 mg/kg i.p. 30 min before thiopental 70 mg/kg i.p.

duration of sleep after sodium thiopental [5, 6]: 42.8 ± 13.5 min | latent time of sleep after sodium thiopental [5, 6]: 3.0 ± 0.3 s | duration of sleep after sodium thiopental [5, 7]: 32.5 ± 7.9 min | latent time of sleep after sodium thiopental [5, 7]: 2.7 ± 0.3 s | duration of sleep after sodium thiopental [5, 8]: 50.7 ± 11.0 min | latent time of sleep after sodium thiopental [5, 8]: 2.8 ± 0.3 s | duration of sleep after sodium thiopental [5, 9]: 45.1 ± 10.6 min | latent time of sleep after sodium thiopental [5, 9]: 2.5 ± 0.1 s
SMILES: C=CCSc1nc2ccc(OCC)cc2[nH]1 [IV, 2-Allylthio-5-ethoxybenzimidazole]
Number of defecations ([1]; 0.1 mg/kg i.p.): 0.6 ± 0.5 | Peripheral activity (crossings) ([1]; 0.1 mg/kg i.p.): 12.6 ± 2.6 | Total activity ([1]; 0.1 mg/kg i.p.): 12.6 ± 2.6 | Peripheral activity (crossings) ([1]; 1.0 mg/kg i.p.): 11.4 ± 2.3 | Total activity ([1]; 1.0 mg/kg i.p.): 11.4 ± 2.3 | Number of defecations ([1]; 5.0 mg/kg i.p.): 1.7 ± 0.8 | Peripheral activity (crossings) ([1]; 5.0 mg/kg i.p.): 13.6 ± 3.5 | Total activity ([1]; 5.0 mg/kg i.p.): 13.6 ± 3.5 | Number of defecations ([1]; 10.0 mg/kg i.p.): 3.0 ± 0.7 | Peripheral activity (crossings) ([1]; 10.0 mg/kg i.p.): 9.5 ± 1.9 | Total activity ([1]; 10.0 mg/kg i.p.): 9.5 ± 1.9 | Number of defecations ([1]; 20.0 mg/kg i.p.): 2.5 ± 0.7 | Peripheral activity (crossings) ([1]; 20.0 mg/kg i.p.): 8.9 ± 2.0 | Total activity ([1]; 20.0 mg/kg i.p.): 8.9 ± 2.0 | effect on the behavior (locomotor activity) of Balb/c mice in open-field test, in words [1]: able to activate the behavior of Balb/c mice | effect on locomotor activity of C57B1/6 mice in open-field test, in words [2]: without any changes in locomotor activity | number of punished lickings (shocks received in 5-min session) ([3]; 1.0 mg/kg i.p.): 29.7 ± 5.3 | number of punished lickings (shocks received in 5-min session) ([3]; 5.0 mg/kg i.p.): 31.0 ± 5.6 | number of punished lickings (shocks received in 5-min session) ([3]; 10.0 mg/kg i.p.): 35.8 ± 7.8 | number of punished lickings (shocks received in 5-min session) ([3]; 20.0 mg/kg i.p.): 62.3 ± 19.5 | time of remaining on the rotarod ([4]; 0.1 mg/kg): 120 + 0 sec | time of remaining on the rotarod ([4]; 1.0 mg/kg): 120 + 0 sec | time of remaining on the rotarod ([4]; 5.0 mg/kg): 120 + 0 sec | time of remaining on the rotarod ([4]; 10.0 mg/kg): 120 + 0 sec | time of remaining on the rotarod ([4]; 20.0 mg/kg): 120 + 0 sec

duration of sleep after sodium thiopental [5, 6]: 91.0 ± 17.8 min | latent time of sleep after sodium thiopental [5, 6]: 2.5 ± 0.5 s | latent time of sleep after sodium thiopental [5, 7]: 2.5 ± 0.2 s | duration of sleep after sodium thiopental [5, 8]: 86.4 ± 13.9 min | latent time of sleep after sodium thiopental [5, 8]: 2.2 ± 0.2 s | duration of sleep after sodium thiopental [5, 9]: 70.6 ± 9.0 min | latent time of sleep after sodium thiopental [5, 9]: 2.9 ± 0.4 s
SMILES: Cc1cc2nc(SCCN3CCCCC3)[nH]c2cc1C [XIV, 2-[2-(Piperidino)ethylthio]-5,6-dimethylbenzimidazole]
Central activity (crossings) ([1]; 0.1 mg/kg i.p.): 1.1 ± 0.7 | Number of defecations ([1]; 0.1 mg/kg i.p.): 1.3 ± 0.5 | Peripheral activity (crossings) ([1]; 0.1 mg/kg i.p.): 27.0 ± 6.3 | Total activity ([1]; 0.1 mg/kg i.p.): 28.2 ± 7.1 | Vertical activity (rearings) ([1]; 0.1 mg/kg i.p.): 0.1 ± 0.1 | Central activity (crossings) ([1]; 0.5 mg/kg i.p.): 4.7 ± 2.7 | Number of defecations ([1]; 0.5 mg/kg i.p.): 1.0 ± 0.4 | Peripheral activity (crossings) ([1]; 0.5 mg/kg i.p.): 44.4 ± 9.2 | Total activity ([1]; 0.5 mg/kg i.p.): 49.4 ± 10.7 | Vertical activity (rearings) ([1]; 0.5 mg/kg i.p.): 0.3 ± 0.3 | Central activity (crossings) ([1]; 1.0 mg/kg i.p.): 0.9 ± 0.8 | Number of defecations ([1]; 1.0 mg/kg i.p.): 2.9 ± 0.7 | Peripheral activity (crossings) ([1]; 1.0 mg/kg i.p.): 38.7 ± 4.8 | Total activity ([1]; 1.0 mg/kg i.p.): 39.7 ± 5.7 | Vertical activity (rearings) ([1]; 1.0 mg/kg i.p.): 0.1 ± 0.1 | Central activity (crossings) ([1]; 5.0 mg/kg i.p.): 2.8 ± 1.8 | Number of defecations ([1]; 5.0 mg/kg i.p.): 0.7 ± 0.7 | Peripheral activity (crossings) ([1]; 5.0 mg/kg i.p.): 58.7 ± 7.2 | Total activity ([1]; 5.0 mg/kg i.p.): 61.3 ± 9.0 | Number of defecations ([1]; 10.0 mg/kg i.p.): 2.0 ± 0.9 | Peripheral activity (crossings) ([1]; 10.0 mg/kg i.p.): 67.8 ± 11.1 | Total activity ([1]; 10.0 mg/kg i.p.): 67.8 ± 11.1 | Central activity (crossings) ([1]; 20.0 mg/kg i.p.): 3.4 ± 3.4 | Number of defecations ([1]; 20.0 mg/kg i.p.): 0.1 ± 0.1 | Peripheral activity (crossings) ([1]; 20.0 mg/kg i.p.): 17.3 ± 8.0 | Total activity ([1]; 20.0 mg/kg i.p.): 20.8 ± 9.6 | Vertical activity (rearings) ([1]; 20.0 mg/kg i.p.): 0.1 ± 0.1 | effect on the behavior (locomotor activity) of Balb/c mice in open-field test, in words [1]: able to activate the behavior of Balb/c mice | effect on locomotor activity of C57B1/6 mice in open-field test, in words [2]: without any changes in locomotor activity | number of punished lickings (shocks received in 5-min session) ([3]; 1.0 mg/kg i.p.): 31.6 ± 7.6 | number of punished lickings (shocks received in 5-min session) ([3]; 5.0 mg/kg i.p.): 32.9 ± 5.8 | number of punished lickings (shocks received in 5-min session) ([3]; 10.0 mg/kg i.p.): 36.0 ± 9.4 | number of punished lickings (shocks received in 5-min session) ([3]; 20.0 mg/kg i.p.): 42.3 ± 10.8 | time of remaining on the rotarod ([4]; 0.1 mg/kg): 120 + 0 sec | time of remaining on the rotarod ([4]; 1.0 mg/kg): 120 + 0 sec | time of remaining on the rotarod ([4]; 5.0 mg/kg): 120 + 0 sec | time of remaining on the rotarod ([4]; 10.0 mg/kg): 120 + 0 sec | time of remaining on the rotarod ([4]; 20.0 mg/kg): 120 + 0 sec
